Measurements reported in the supplement of paper PMC10307832.

Legend:
Test in all cases: relative viability (nuclei count vs DMSO), 5 days (fraction); higher = more cells survive
BEN = tested on: BEN
Summary of the method: (§1)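 Lung cancer cell lines were seeded in 1536-well plates and dosed by pin tool the next day, with either a single drug or a fixed anchor-drug dose combined with five library-drug doses (not always all listed) spaced in √10 steps. Five days later, one step fixed the cells and stained their nuclei (final 0.05% Triton X-100, 1% formaldehyde, 1 ug/ml Hoechst), and nuclei were counted on 4× images. Relative viability is the nuclei count in treated wells divided by the count in vehicle wells, and each value is the median of duplicate plates.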

CAL-12T = tested on: CAL-12T
Summary of the method: as §1

HCC-366 = tested on: HCC-366
Summary of the method: as §1

LOU-NH91 = tested on: LOU-NH91
Summary of the method: as §1

LU99A = tested on: LU99A
Summary of the method: as §1

NCI-H1355 = tested on: NCI-H1355
Summary of the method: as §1

NCI-H1437 = tested on: NCI-H1437
Summary of the method: as §1

NCI-H1651 = tested on: NCI-H1651
Summary of the method: as §1

NCI-H1734 = tested on: NCI-H1734
Summary of the method: as §1

NCI-H1793 = tested on: NCI-H1793
Summary of the method: as §1

NCI-H1975 = tested on: NCI-H1975
Summary of the method: as §1

NCI-H2085 = tested on: NCI-H2085
Summary of the method: as §1

NCI-H2342 = tested on: NCI-H2342
Summary of the method: as §1

NCI-H358 = tested on: NCI-H358
Summary of the method: as §1

NCI-H441 = tested on: NCI-H441
Summary of the method: as §1

NCI-H460 = tested on: NCI-H460
Summary of the method: as §1

NCI-H838 = tested on: NCI-H838
Summary of the method: as §1

Q: What does the source list for CC(=O)O[C@@]12CO[C@@H]1C[C@H](O)[C@@]1(C)C(=O)[C@H](O)C3=C(C)[C@@H](OC(=O)[C@H](O)[C@@H](NC(=O)OC(C)(C)C)c4ccccc4)C[C@@](O)([C@@H](OC(=O)c4ccccc4)[C@H]21)C3(C)C [Docetaxel] + NC(=O)Nc1cc(-c2cccc(F)c2)sc1C(=O)N[C@H]1CCCNC1 [AZD7762] (partner 0.2 µM)?
A: relative viability (BEN; first compound 0.0002 µM): 0.553; relative viability (BEN; first compound 0.000632 µM): 0.822; relative viability (BEN; first compound 0.002 µM): 0.483; relative viability (BEN; first compound 0.006325 µM): 0.412; relative viability (BEN; first compound 0.02 µM): 0.307; relative viability (CAL-12T; first compound 0.0002 µM): 0.595; relative viability (CAL-12T; first compound 0.000632 µM): 0.452; relative viability (CAL-12T; first compound 0.002 µM): 0.491; relative viability (CAL-12T; first compound 0.02 µM): 0.176; relative viability (HCC-366; first compound 0.0002 µM): 0.206; relative viability (HCC-366; first compound 0.000632 µM): 0.0949; relative viability (HCC-366; first compound 0.002 µM): 0.145; relative viability (HCC-366; first compound 0.006325 µM): 0.0384; relative viability (HCC-366; first compound 0.02 µM): 0.0132; relative viability (LOU-NH91; first compound 0.0002 µM): 0.748; relative viability (LOU-NH91; first compound 0.000632 µM): 0.662; relative viability (LOU-NH91; first compound 0.002 µM): 0.509; relative viability (LOU-NH91; first compound 0.006325 µM): 0.385; relative viability (LOU-NH91; first compound 0.02 µM): 0.342; relative viability (LU99A; first compound 0.0002 µM): 0.328; relative viability (LU99A; first compound 0.000632 µM): 0.253; relative viability (LU99A; first compound 0.002 µM): 0.194; relative viability (LU99A; first compound 0.006325 µM): 0.228; relative viability (LU99A; first compound 0.02 µM): 0.104; relative viability (NCI-H1355; first compound 0.0002 µM): 0.698; relative viability (NCI-H1355; first compound 0.000632 µM): 0.758; relative viability (NCI-H1355; first compound 0.002 µM): 0.411; relative viability (NCI-H1355; first compound 0.02 µM): 0.191; relative viability (NCI-H1437; first compound 0.0002 µM): 1.08; relative viability (NCI-H1437; first compound 0.000632 µM): 1.12; relative viability (NCI-H1437; first compound 0.002 µM): 0.616; relative viability (NCI-H1437; first compound 0.006325 µM): 0.281; relative viability (NCI-H1437; first compound 0.02 µM): 0.141; relative viability (NCI-H1651; first compound 0.0002 µM): 0.345; relative viability (NCI-H1651; first compound 0.000632 µM): 0.507; relative viability (NCI-H1651; first compound 0.002 µM): 0.394; relative viability (NCI-H1651; first compound 0.006325 µM): 0.13; relative viability (NCI-H1734; first compound 0.0002 µM): 0.449; relative viability (NCI-H1734; first compound 0.000632 µM): 0.384; relative viability (NCI-H1734; first compound 0.002 µM): 0.199; relative viability (NCI-H1734; first compound 0.006325 µM): 0.222; relative viability (NCI-H1734; first compound 0.02 µM): 0.164; relative viability (NCI-H1793; first compound 0.0002 µM): 0.369; relative viability (NCI-H1793; first compound 0.000632 µM): 0.381; relative viability (NCI-H1793; first compound 0.002 µM): 0.299; relative viability (NCI-H1793; first compound 0.006325 µM): 0.204; relative viability (NCI-H1793; first compound 0.02 µM): 0.144; relative viability (NCI-H1975; first compound 0.0002 µM): 0.721; relative viability (NCI-H1975; first compound 0.000632 µM): 0.601; relative viability (NCI-H1975; first compound 0.002 µM): 0.389; relative viability (NCI-H1975; first compound 0.006325 µM): 0.24; relative viability (NCI-H1975; first compound 0.02 µM): 0.169; relative viability (NCI-H2085; first compound 0.0002 µM): 0.963; relative viability (NCI-H2085; first compound 0.000632 µM): 0.954; relative viability (NCI-H2085; first compound 0.002 µM): 0.849; relative viability (NCI-H2085; first compound 0.006325 µM): 0.338; relative viability (NCI-H2085; first compound 0.02 µM): 0.309; relative viability (NCI-H2342; first compound 0.0002 µM): 0.46; relative viability (NCI-H2342; first compound 0.000632 µM): 0.56; relative viability (NCI-H2342; first compound 0.002 µM): 0.405; relative viability (NCI-H2342; first compound 0.006325 µM): 0.41; relative viability (NCI-H2342; first compound 0.02 µM): 0.363; relative viability (NCI-H358; first compound 0.0002 µM): 0.429; relative viability (NCI-H358; first compound 0.000632 µM): 0.328; relative viability (NCI-H358; first compound 0.006325 µM): 0.24; relative viability (NCI-H358; first compound 0.02 µM): 0.159; relative viability (NCI-H441; first compound 0.0002 µM): 1.06; relative viability (NCI-H441; first compound 0.000632 µM): 1.15; relative viability (NCI-H441; first compound 0.002 µM): 0.263; relative viability (NCI-H441; first compound 0.006325 µM): 0.221; relative viability (NCI-H441; first compound 0.02 µM): 0.167; relative viability (NCI-H460; first compound 0.0002 µM): 0.565; relative viability (NCI-H460; first compound 0.000632 µM): 0.575; relative viability (NCI-H460; first compound 0.002 µM): 0.167; relative viability (NCI-H460; first compound 0.006325 µM): 0.0571; relative viability (NCI-H460; first compound 0.02 µM): 0.0404; relative viability (NCI-H838; first compound 0.0002 µM): 0.955; relative viability (NCI-H838; first compound 0.000632 µM): 0.915; relative viability (NCI-H838; first compound 0.002 µM): 0.639; relative viability (NCI-H838; first compound 0.006325 µM): 0.606; relative viability (NCI-H838; first compound 0.02 µM): 0.574
